# Patent US20240294895A1, “ENZYMATIC COMPOSITIONS FOR CARBOHYDRATE ANTIGEN CLEAVAGE ON DONOR ORGANS, METHODS AND USES ASSOCIATED THEREWITH” (THE UNIVERSITY OF BRITISH COLUMBIA, priority 2018, published 2024)
# What was measured:
# Format in all cases: biochemical
# [1] = test system: Flavonifractor plautii GalNAcDeacetylase FpGalNAcDeAc_D1min, mutant C99A; assay: Cleavage of A antigen Type2tetra-MU by FpGalNAcDeAc_D1min C99A; conditions: pH 7.4, 37° C.
# Description: (§1) kcat/KM parameter were determined for A antigen subtype 1/2/4tetra-MU at pH 7.4 at 37° C. Reactions (total volume of 100 μL) were performed in black 96-plate wells and as coupled assays in 100 mM NaH2PO4 (pH 7.4) with 12 nM FpGalNAcDeacetylase 0.1 mg/mL SpHex, BgaC (BgaA for subtype II), AfcA, at varying concentrations of substrate (25 μM, 20 μM, 15 μM, 10 μM, 7.5 μM, 5 μM). The reactions were run as a series of four with controls (no FpGalNAcDeacetylase) as duplicates. The fluorescence signal (365/435 nm) resulting from MU release by hydrolysis was monitored on a Synergy H1™ plate reader (BioTek™) and converted to concentration using MU standard concentration curves determined under identical reaction conditions. Initial rates (μM/s) were determined and plotted in Grafit™ 7.0 to determine the kcat/KM (s^−1*mM^−1) parameters.
# (§2) Based on structural information (not shown) and sequence alignment (not shown) FpGalNAcDeAc_D1min and FpGalNase_truncA were mutated using the QuickChange™ protocol (Zhang 2004), utilizing the primers noted in TABLE B. The mutants were purified via NiNTA and HIC columns as described above. The structural integrity of all mutants was checked via CD spectroscopy; all tested enzymes were structurally similar to their wild-type. […]
# [2] = test system: Flavonifractor plautii GalNAcDeacetylase FpGalNAcDeAc_D1min, mutant C99S; assay: Cleavage of A antigen Type2tetra-MU by FpGalNAcDeAc_D1min C99S; conditions: pH 7.4, 37° C.
# Description: as §1, §2
# [3] = test system: Flavonifractor plautii GalNAcDeacetylase FpGalNAcDeAc_D1min, mutant D100N; assay: Cleavage of A antigen Type2tetra-MU by FpGalNAcDeAc_D1min D100N; conditions: substrate depletion method for low-activity mutants
# Description: kcat/KM parameter were determined for A antigen subtype 1/2/4tetra-MU at pH 7.4 at 37° C. […] The reactions were run as a series of four with controls (no FpGalNAcDeacetylase) as duplicates. The fluorescence signal (365/435 nm) resulting from MU release by hydrolysis was monitored on a Synergy H1™ plate reader (BioTek™) and converted to concentration using MU standard concentration curves determined under identical reaction conditions. […]
# Based on structural information (not shown) and sequence alignment (not shown) FpGalNAcDeAc_D1min and FpGalNase_truncA were mutated using the QuickChange™ protocol (Zhang 2004), utilizing the primers noted in TABLE B. The mutants were purified via NiNTA and HIC columns as described above. The structural integrity of all mutants was checked via CD spectroscopy; all tested enzymes were structurally similar to their wild-type. For mutants with relatively low activity, reactions were carried out under the same conditions used for full kinetic determinations; however the substrate depletion method was used for determination of kcat/KM values as has been previously described (Vocadlo 2002). In brief: at low concentrations of substrate where [Substrate]<KM (equivalent to ˜⅕- 1/10 of Km) the kcat/KM value can be approximated upon non-linear fitting of the reaction time course to a first order curve and dividing by the enzyme concentration.
# [4] = test system: Flavonifractor plautii GalNAcDeacetylase FpGalNAcDeAc_D1min, mutant H252A; assay: Cleavage of A antigen Type2tetra-MU by FpGalNAcDeAc_D1min H252A; conditions: substrate depletion method for low-activity mutants
# Description: as §1, §2
# [5] = test system: Flavonifractor plautii GalNAcDeacetylase FpGalNAcDeAc_D1min, mutant H252F; assay: Cleavage of A antigen Type2tetra-MU by FpGalNAcDeAc_D1min H252F; conditions: substrate depletion method for low-activity mutants
# Description: as §1, with “Initial rates (μM/s) were determined and plotted in Grafit™ 7.0 to determine the kcat/KM (s^−1*mM^−1) parameters.” left out
# as §2
# [6] = test system: Flavonifractor plautii GalNAcDeacetylase FpGalNAcDeAc_D1min, mutant Y315F; assay: Cleavage of A antigen Type2tetra-MU by FpGalNAcDeAc_D1min Y315F; conditions: substrate depletion method for low-activity mutants
# Description: as §1, §2
smiles,measurement,setting,value
CC(=O)N[C@H]1[C@H](Oc2ccc3c(C)cc(=O)oc3c2)O[C@H](CO)[C@@H](O[C@@H]2O[C@H](CO)[C@H](O)[C@H](O[C@H]3O[C@H](CO)[C@H](O)[C@H](O)[C@H]3NC(C)=O)[C@H]2O[C@@H]2O[C@@H](C)[C@@H](O)[C@@H](O)[C@@H]2O)[C@@H]1O [A antigen Type2tetra-MU],kcat/Km,[1],2344.67 ± 96.63 M⁻¹ s⁻¹
same,kcat/Km,[2],1259.9 ± 41.52 M⁻¹ s⁻¹
same,kcat/Km,[3],1.22 ± 0.083 M⁻¹ s⁻¹
same,kcat/Km,[4],1.4 ± 0.2 M⁻¹ s⁻¹
same,kcat/Km,[5],0.5 ± 0.033 M⁻¹ s⁻¹
same,kcat/Km,[6],2.78 ± 0.65 M⁻¹ s⁻¹
